Data set [1] has as its system Rattus norvegicus. Briefly: Antiinflammatory activity in Wistar rat mycobacterial adjuvant-induced arthritis model assessed as suppression of secondary lesions at 30 mg/kg/day, po measured on day 14. Type of data set: functional, organism-based.
In data set [2] the test system is Rattus norvegicus. Briefly: Toxicity in Wistar rat mycobacterial adjuvant-induced arthritis model assessed as increase in body weight at 30 mg/kg/day, po after 14 days (reference value: 19 g). On the set-up: route oral. Type of data set: organism-based. To be noted: in vivo, 336 h.
Data set [3] deals with Rattus norvegicus. Description: Antiinflammatory activity in Wistar rat mycobacterial adjuvant-induced arthritis model assessed as inhibition of swelling at 30 mg/kg/day, po measured on day 14 relative to control. Type of data set: functional. To be noted: 336 h.
The subject of data set [4] is Rattus norvegicus. Description: Antiinflammatory activity in Wistar rat mycobacterial adjuvant-induced arthritis model assessed as inhibition of swelling at 30 mg/kg/day, po measured on day 3 relative to control. Type of data set: functional. As to conditions: 72 h.

Active and inactive are the calls of the source. The calls are words filed in the database; no cut-off is given here.

Regarding `O=C(O)c1ccc(=O)n([C@@H]2O[C@H](CO)[C@@H](O)[C@H]2O)c1`, the result with Rattus norvegicus [1] was inactive. Besides, the Activity in the data set on Rattus norvegicus [2] is given as 22 g. For the same compound, the inhibition in vivo (as a rule, the drop in the measured response relative to a control, in per cent) at 30 mg/kg/day was found to be 37% in the data set on Rattus norvegicus [3] and 21% with Rattus norvegicus [4].

Consider `COc1ccc2cc([C@H](C)C(=O)O)ccc2c1` [NAPROXEN], for which the inhibition in vivo at 30 mg/kg/day with Rattus norvegicus [3] is 65%.

For the origin of these results see ChEMBL document CHEMBL3244291, “Synthesis and antiinflammatory activity of 6-oxo-1-(beta-D-ribofuranosyl)nocotinic acid and related derivatives” (J Med Chem, 1978).
